Test results published in patent publication US8859496B2, “Pharmaceutical composition using connective-tissue growth factor” (Postech Academy-Industry Foundation, priority 2010, dated 2014).

Experiments:
[1] = system: human FPRL1; assay: siRNA inhibition of FPRL1 expression in HUVECs (RT-PCR); format: cell-based; details: siRNA 20 nM
Procedure: To inhibit transcription of human FPRL1 using siRNA, siRA to FPRL1 (sense: UUCACAUCGUGGUGGACAUdTdT (SEQ ID NO. 3), anti-sense: AUGUCCACCACGAUGUGAAdTdT (SEQ ID NO. 4)) was used. As result of BLAST search of the siRNA sequence, it was confirmed that there is no significant similarity to other sequences in the database. […] HUVECs were used for siRNA transfection. The cells were transfected to the final concentration of 20 nM with FPRL1 siRNA (SEQ ID NO. 3 and SEQ ID NO. 4) or transfected with luciferase siRNA (SEQ ID NO. 11 and SEQ ID NO. 12) as control. At this time, a lipofectamine reagent (Invitrogen Life Technologies) was used according to the manufacturer's instruction. The cells were washed with serum-free medium, and cultured with the transfection mixture to which medium containing 20% (v/v) FBS was added for 4.5 hours. 24 hours and 48 hours after culturing, the cells were collected, and the degree of FPRL1 expression was confirmed by RT-PCR analysis.
All RNAs were separated from the transfected HUVECs according to the manufacturer's instruction using commercially available TRI reagent (Molecular Research Center). First-strand cDNA was synthesized according to the manufacturer's instruction using 3 ug of each DNA-free total RNA sample and oligo(dT)15 and Moloney murine leukemia virus reverse transcriptase (Promega, Wis., USA). […]

[2] = system: HUVECs; assay: HUVEC wound migration assay; format: cell-based, human; details: compared to Luciferase siRNA control
Procedure: Specifically, HUVECs inoculated on a 60-mm culture dish to confluence were wounded with the end of a pipette, and treated with linker polypeptide (10^−1˜10^2 nM) or recombinant CTGF (recombinant human CTGF, rhCTGF; BioVendor R&D, NC, USA) (10^1 or 10^2 nM) in Medium 199 to which 1% serum and 1 mM thymidine were added. After culturing 16 hours, the number of cells that migrated over a reference line was counted to quantify the degree of migration, and the cells were photographed with 50× magnification.
(§1) First, 20 ng/ml of VEGF-A was administered to HUVECs, the degree of cell proliferation, cell migration, or tube formation was confirmed by the <Experiment method 9>, and the results are shown in FIGS. 22 to 24. At this time, FPRL1 antagonist WRW4 was additionally added.

[3] = system: HUVECs; assay: HUVEC tube formation on Matrigel; format: cell-based, human; details: compared to Luciferase siRNA control
Procedure: Meanwhile, to analyze tube formation, HUVECs were inoculated on the previously polymerized Matrigel (BD Biosciences) layer together with a certain amount of linker polypeptide, rhCTGF or VEGF-A165. After culturing for 18 hours, the shape of the cells was observed by phase-contrast microscopy, and photographed with 40× magnification. By measuring the length of tubes 5 times in LPF (low-power fields) randomly selected from each well using image-Pro Plus v4.5 (Media Cybernetics, Silver Spring, Md.), the degree of tube formation was quantified.
as §1

[4] = biological target: T1, FPRL1 (Homo sapiens, UniProt P25090); assay: ERK phosphorylation in FPRL1/RBL cells (immunoblot); format: cell-based; details: vector/RBL, FPR/RBL or FPRL1/RBL cells; conditioned medium or VEGF-A 10 ng/ml 8 hours; WKYMVm 10 nM
T1 construct: expressed in transfected cells; host or cells: rat basophil leukemia RBL-2H3 cells, kept under G418
T1 sequence (P25090 1-351): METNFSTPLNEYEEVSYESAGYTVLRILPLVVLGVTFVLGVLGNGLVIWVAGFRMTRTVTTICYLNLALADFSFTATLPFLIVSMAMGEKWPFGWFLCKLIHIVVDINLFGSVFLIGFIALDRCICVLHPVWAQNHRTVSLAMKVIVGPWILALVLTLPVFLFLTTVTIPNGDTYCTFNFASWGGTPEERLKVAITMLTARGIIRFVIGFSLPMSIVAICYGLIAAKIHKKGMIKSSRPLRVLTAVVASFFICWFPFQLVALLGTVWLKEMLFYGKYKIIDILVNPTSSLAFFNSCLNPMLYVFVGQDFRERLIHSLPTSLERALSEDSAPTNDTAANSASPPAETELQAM
Procedure: Vector/RBL cells, FPR/RBL cells, FPRL1/RBL cells, and HUVECs were cultured to confluence, and serum-starved. The stimulated cells (1×10^5 cells) were washed with PBS twice, dissolved in 1 ml of sample buffer (50 mM Tris-HCl, 100 mM NaCl, 0.1% SDS, 1% Nonidet P-40, 50 mM NaF, 1 mM Na3VO4, 1 μg/ml aprotinin, 1 μg/ml pepstatin, and 1 μg/ml leupeptin), heated at 95° C. for 30 seconds, separated with SDS-PAGE, and then, transferred to a nitrocellulose film. Immunoblot was conducted using anti-phospho-ERK (extracellular signal regulated kinase)1/2 (Thr^202/Tyr^204)(Cell Signaling Technology, Beverly, Mass., USA), anti-ERK1/2 (Cell Signaling Technology, Beverly, Mass., USA), anti-CTGF (Abcam, Cambridge, Mass., USA), anti-Actin (Sigma, St. Louis, Mo., USA), or anti-Flag (Sigma, St. Louis, Mo., USA) antibody, and then, the film was visualized with a chemiluminescence substrate (Amersham Pharmacia).
To confirm this, the inventors obtained conditioned medium (CM) in HUVEC treated with VEGF-A, and FPRL1-overexpressing cells FPRL1/RBL were treated therewith in the concentration of 10 ng/ml or 50 ng/ml for 8 hours. At this time, as positive control, FPRL1 agonistic peptide WKYMVm (Trp-Lys-Tyr-Met-Val-D-Met, SEQ ID NO. 1) was treated with 10 nM.
After the treatment, immunoblot was conducted on cell lysate that was transferred to a nitrocellulose film with anti-phospho ERK (extracellular signal regulated kinase)1/2 and anti-ERK1/2 antibody (Cell Signaling Technology, Beverly, Mass., USA), and then, the film was visualized with a chemiluminescence substrate (Amersham Pharmacia), and the results are shown in FIG. 1.
Meanwhile, the above described vector/RBL, FPR/RBL, or FPRL1/RBL cells were respectively treated with the above conditioned medium or VEGF-A at the concentration of 10 ng/ml for 8 hours, and positive control was treated with 10 nM of agonistic peptide WKYMVm (SEQ ID NO. 1).
As described in the <Experiment method 5>, FPRL1/RBL cells were treated with 40 ug of the HPLC fraction of the conditioned medium for 5 minutes, and the result confirming whether ERK phosphorylation occurred as described in the <Experiment result 1> was shown in FIG. 3.
To confirm whether the purified proteins induce ERK phosphorylation in FPRL1/RBL cells, immunoblot was conducted as described in the <Experiment result 1>, and the results are shown in FIG. 9.
ERK phosphorylation induction of CTGF linker polypeptide was compared to recombinant human CTGF (rhCTGF). Specifically, FPRL1/RBL cells were treated with CTGF linker polypeptide and rhCTGF for 5 minutes at various concentrations, ERK phosphorylation was measured, and the results are shown in FIG. 11. […]

Row | Substance | FPRL1 expression after siRNA [1] | effect of siRNA on HUVEC cell migration induced by VEGF-A [2] | effect of siRNA on HUVEC tube formation induced by VEGF-A [3] | ERK phosphorylation, specificity for FPRL1 [4]
1 | Luciferase siRNA: control siRNA, sense: CGUACGCGGAAUACUUCGAdTdT (SEQ ID NO. 11), anti-sense: UCGAAGUAUUCCGCGUACGdTdT (SEQ ID NO. 12) (dTdT overhangs, chemistry not fully specified) | FPRL1 expression is not inhibited | – | – | –
2 | FPRL1 siRNA: sense: UUCACAUCGUGGUGGACAUdTdT (SEQ ID NO. 3), anti-sense: AUGUCCACCACGAUGUGAAdTdT (SEQ ID NO. 4) (dTdT overhangs, chemistry not fully specified) | FPRL1 expression is inhibited | cell migration or tube formation induced by VEGF-A is inhibited | cell migration or tube formation induced by VEGF-A is inhibited | –
3 | Trp-Lys-Tyr-Met-Val-D-Met [WKYMVm] | – | – | – | induce ERK phosphorylation only in FPRL1-overexpressing FPRL1/RBL cells
